Assay results from patent publication US9982019B2, “Glycopeptide compound or pharmaceutical salt thereof and method for preparing same, and pharmaceutical compositions and applications thereof” (priority 2012, dated 2018).

Assays:
[1] = tested on: Feces enterococci (VSE clinical isolates: MEFA 0039); experiment: In vitro antibacterial activity, agar two times dilution method, MIC; assay type: cell-based; details: agar dilution; VSE clinical isolate MEFA 0039
From the text: (§1) Testing results of in vitro antibacterial activity of some target compounds of the present invention are as follows:
(§2) Drugs: firstly being dissolved in DMSO, and then being diluted to an appropriate concentration with sterile water, and afterwards successively being diluted for twice.
(§3) Determination: referencing the standard of CSSI 2008 version, using a agar two times dilution method, determine the minimum inhibitory concentration (MIC values).
(§4) Feces enterococci (VSE clinical isolates: MEFA 0039); Streptococcus pneumoniae (PISP: ATCC 49619).
(§5) 3. Positive Control Drug is Vancomycin Hydrochloride.

[2] = tested on: Streptococcus pneumoniae (PISP: ATCC 49619); experiment: as above; assay type: cell-based; details: for MIC Values of Compounds, Streptococcus pneumoniae: agar dilution, PISP ATCC 49619; for activity against streptococcus pneumoniae relative to vancomycin: compared with positive control vancomycin
From the text: as §1, §2, §3, §4, §5

Row | SMILES | MIC Values of Compounds, Enterococci [1] [µg/mL] | MIC Values of Compounds, Streptococcus pneumoniae [2] [µg/mL] | activity against streptococcus pneumoniae relative to vancomycin [2]
1 | CNC(CC(C)C)C(=O)NC1C(=O)NC(CC(N)=O)C(=O)NC2C(=O)NC3C(=O)NC(C(=O)NC(C(=O)O)c4cc(O)c(CNCP(=O)(O)O)c(O)c4-c4cc3ccc4O)C(OC3CC(C)(N)C(O)C(C)O3)c3ccc(c(Cl)c3)Oc3cc2cc(c3OC2OC(CO)C(O)C(O)C2OC2CC(C)(N)C(O)C(C)O2)Oc2ccc(cc2Cl)C1O (centres unmarked) [Compound I1] | 0.5 | 0.125 | 
2 | CNC(CC(C)C)C(=O)NC1C(=O)NC(CC(N)=O)C(=O)NC2C(=O)NC3C(=O)NC(C(=O)NC(C(=O)O)c4cc(O)c(CN5CCOCC5)c(O)c4-c4cc3ccc4O)C(OC3CC(C)(N)C(O)C(C)O3)c3ccc(c(Cl)c3)Oc3cc2cc(c3OC2OC(CO)C(O)C(O)C2OC2CC(C)(N)C(O)C(C)O2)Oc2ccc(cc2Cl)C1O (centres unmarked) [Compound I2] | 0.5 | 0.063 | 
3 | CCCCCCCCCCNC1(C)CC(OC2c3ccc(c(Cl)c3)Oc3cc4cc(c3OC3OC(CO)C(O)C(O)C3OC3CC(C)(NCCCCCCCCCC)C(O)C(C)O3)Oc3ccc(cc3Cl)C(O)C(NC(=O)C(CC(C)C)N(C)CCCCCCCCCC)C(=O)NC(CC(N)=O)C(=O)NC4C(=O)NC3C(=O)NC2C(=O)NC(C(=O)O)c2cc(O)c(CNCCCC)c(O)c2-c2cc3ccc2O)OC(C)C1O (centres unmarked) [Compound I4] | >8 | >8 | 
4 | CNC(CC(C)C)C(=O)NC1C(=O)NC(CC(N)=O)C(=O)NC2C(=O)NC3C(=O)NC(C(=O)NC(C(=O)O)c4cc(O)c(CN5CCOCC5)c(O)c4-c4cc3ccc4O)C(OC3CC(C)(N)C(O)C(C)O3)c3ccc(c(Cl)c3)Oc3cc2cc(c3OC2OC(CO)C(O)C(O)C2OC2CC(C)(NCc3ccccc3Br)C(O)C(C)O2)Oc2ccc(cc2Cl)C1O (centres unmarked) [Compound I5] | 0.25 | 0.125 | 
5 | CCN(CC)Cc1c(O)cc2c(c1O)-c1cc(ccc1O)C1NC(=O)C3NC(=O)C(CC(N)=O)NC(=O)C(NC(=O)C(CC(C)C)NC)C(O)c4ccc(c(Cl)c4)Oc4cc3cc(c4OC3OC(CO)C(O)C(O)C3OC3CC(C)(NCc4ccccc4Br)C(O)C(C)O3)Oc3ccc(cc3Cl)C(OC3CC(C)(N)C(O)C(C)O3)C(NC1=O)C(=O)NC2C(=O)O (centres unmarked) [Compound I6] | 1 | 0.25 | 
6 | CCCCNCc1c(O)cc2c(c1O)-c1cc(ccc1O)C1NC(=O)C3NC(=O)C(CC(N)=O)NC(=O)C(NC(=O)C(CC(C)C)NC)C(O)c4ccc(c(Cl)c4)Oc4cc3cc(c4OC3OC(CO)C(O)C(O)C3OC3CC(C)(NCc4ccccc4Br)C(O)C(C)O3)Oc3ccc(cc3Cl)C(OC3CC(C)(N)C(O)C(C)O3)C(NC1=O)C(=O)NC2C(=O)O (centres unmarked) [Compound I7] | 1 | 0.5 | 
7 | CNC(CC(C)C)C(=O)NC1C(=O)NC(CC(N)=O)C(=O)NC2C(=O)NC3C(=O)NC(C(=O)NC(C(=O)O)c4cc(O)c(CN5CCOCC5)c(O)c4-c4cc3ccc4O)C(OC3CC(C)(N)C(O)C(C)O3)c3ccc(c(Cl)c3)Oc3cc2cc(c3OC2OC(CO)C(O)C(O)C2OC2CC(C)(NCc3cccc(Br)c3)C(O)C(C)O2)Oc2ccc(cc2Cl)C1O (centres unmarked) [Compound I8] | 0.25 | 0.063 | 
8 | CNC(CC(C)C)C(=O)NC1C(=O)NC(CC(N)=O)C(=O)NC2C(=O)NC3C(=O)NC(C(=O)NC(C(=O)O)c4cc(O)c(CN5CCOCC5)c(O)c4-c4cc3ccc4O)C(OC3CC(C)(N)C(O)C(C)O3)c3ccc(c(Cl)c3)Oc3cc2cc(c3OC2OC(CO)C(O)C(O)C2OC2CC(C)(NCc3ccc(Br)cc3)C(O)C(C)O2)Oc2ccc(cc2Cl)C1O (centres unmarked) [Compound I9] | 0.25 | ≤0.031 | more four times than vancomycin
9 | CCN(CC)Cc1c(O)cc2c(c1O)-c1cc(ccc1O)C1NC(=O)C3NC(=O)C(CC(N)=O)NC(=O)C(NC(=O)C(CC(C)C)NC)C(O)c4ccc(c(Cl)c4)Oc4cc3cc(c4OC3OC(CO)C(O)C(O)C3OC3CC(C)(NCc4ccc(Br)cc4)C(O)C(C)O3)Oc3ccc(cc3Cl)C(OC3CC(C)(N)C(O)C(C)O3)C(NC1=O)C(=O)NC2C(=O)O (centres unmarked) [Compound I10] | 2 | 0.25 | 
10 | CCCCNCc1c(O)cc2c(c1O)-c1cc(ccc1O)C1NC(=O)C3NC(=O)C(CC(N)=O)NC(=O)C(NC(=O)C(CC(C)C)NC)C(O)c4ccc(c(Cl)c4)Oc4cc3cc(c4OC3OC(CO)C(O)C(O)C3OC3CC(C)(NCc4ccc(Br)cc4)C(O)C(C)O3)Oc3ccc(cc3Cl)C(OC3CC(C)(N)C(O)C(C)O3)C(NC1=O)C(=O)NC2C(=O)O (centres unmarked) [Compound I11] | 1 | 0.25 | 
11 | CNC(CC(C)C)C(=O)NC1C(=O)NC(CC(N)=O)C(=O)NC2C(=O)NC3C(=O)NC(C(=O)NC(C(=O)O)c4cc(O)c(CN5CCOCC5)c(O)c4-c4cc3ccc4O)C(OC3CC(C)(N)C(O)C(C)O3)c3ccc(c(Cl)c3)Oc3cc2cc(c3OC2OC(CO)C(O)C(O)C2OC2CC(C)(NCc3ccc(OC)cc3)C(O)C(C)O2)Oc2ccc(cc2Cl)C1O (centres unmarked) [Compound I12] | 2 | 1 | 
12 | CNC(CC(C)C)C(=O)NC1C(=O)NC(CC(N)=O)C(=O)NC2C(=O)NC3C(=O)NC(C(=O)NC(C(=O)O)c4cc(O)c(CN5CCOCC5)c(O)c4-c4cc3ccc4O)C(OC3CC(C)(N)C(O)C(C)O3)c3ccc(c(Cl)c3)Oc3cc2cc(c3OC2OC(CO)C(O)C(O)C2OC2CC(C)(NCc3ccc(C(C)C)cc3)C(O)C(C)O2)Oc2ccc(cc2Cl)C1O (centres unmarked) [Compound I13] | 1 | 0.25 | 
13 | CCCCNCc1c(O)cc2c(c1O)-c1cc(ccc1O)C1NC(=O)C3NC(=O)C(CC(N)=O)NC(=O)C(NC(=O)C(CC(C)C)NC)C(O)c4ccc(c(Cl)c4)Oc4cc3cc(c4OC3OC(CO)C(O)C(O)C3OC3CC(C)(NCc4ccc(C(C)C)cc4)C(O)C(C)O3)Oc3ccc(cc3Cl)C(OC3CC(C)(N)C(O)C(C)O3)C(NC1=O)C(=O)NC2C(=O)O (centres unmarked) [Compound I14] | 0.5 | ≤0.031 | more four times than vancomycin
14 | CCCCNCc1c(O)cc2c(c1O)-c1cc(ccc1O)C1NC(=O)C3NC(=O)C(CC(N)=O)NC(=O)C(N4CN(C)C(CC(C)C)C4=O)C(O)c4ccc(c(Cl)c4)Oc4cc3cc(c4OC3OC(CO)C(O)C(O)C3OC3CC(C)(N)C(O)C(C)O3)Oc3ccc(cc3Cl)C(OC3CC(C)(N)C(O)C(C)O3)C(NC1=O)C(=O)NC2C(=O)O (centres unmarked) [II1] | 0.25 | 0.125 | 
15 | CCN(CC)Cc1c(O)cc2c(c1O)-c1cc(ccc1O)C1NC(=O)C3NC(=O)C(CC(N)=O)NC(=O)C(N4CN(C)C(CC(C)C)C4=O)C(O)c4ccc(c(Cl)c4)Oc4cc3cc(c4OC3OC(CO)C(O)C(O)C3OC3CC(C)(NCc4ccccc4Br)C(O)C(C)O3)Oc3ccc(cc3Cl)C(OC3CC(C)(N)C(O)C(C)O3)C(NC1=O)C(=O)NC2C(=O)O (centres unmarked) [II2] | 2 | 0.5 | 
16 | CCCCNCc1c(O)cc2c(c1O)-c1cc(ccc1O)C1NC(=O)C3NC(=O)C(CC(N)=O)NC(=O)C(N4CN(C)C(CC(C)C)C4=O)C(O)c4ccc(c(Cl)c4)Oc4cc3cc(c4OC3OC(CO)C(O)C(O)C3OC3CC(C)(NCc4ccccc4Br)C(O)C(C)O3)Oc3ccc(cc3Cl)C(OC3CC(C)(N)C(O)C(C)O3)C(NC1=O)C(=O)NC2C(=O)O (centres unmarked) [II3] | 2 | 0.25 | 
17 | CCN(CC)Cc1c(O)cc2c(c1O)-c1cc(ccc1O)C1NC(=O)C3NC(=O)C(CC(N)=O)NC(=O)C(N4CN(C)C(CC(C)C)C4=O)C(O)c4ccc(c(Cl)c4)Oc4cc3cc(c4OC3OC(CO)C(O)C(O)C3OC3CC(C)(NCc4cccc(Br)c4)C(O)C(C)O3)Oc3ccc(cc3Cl)C(OC3CC(C)(N)C(O)C(C)O3)C(NC1=O)C(=O)NC2C(=O)O (centres unmarked) [II4] | 2 | 0.25 | 
18 | CCCCNCc1c(O)cc2c(c1O)-c1cc(ccc1O)C1NC(=O)C3NC(=O)C(CC(N)=O)NC(=O)C(N4CN(C)C(CC(C)C)C4=O)C(O)c4ccc(c(Cl)c4)Oc4cc3cc(c4OC3OC(CO)C(O)C(O)C3OC3CC(C)(NCc4cccc(Br)c4)C(O)C(C)O3)Oc3ccc(cc3Cl)C(OC3CC(C)(N)C(O)C(C)O3)C(NC1=O)C(=O)NC2C(=O)O (centres unmarked) [II5] | 1 | 0.25 | 
19 | CC(C)CC1C(=O)N(C2C(=O)NC(CC(N)=O)C(=O)NC3C(=O)NC4C(=O)NC(C(=O)NC(C(=O)O)c5cc(O)c(CN6CCOCC6)c(O)c5-c5cc4ccc5O)C(OC4CC(C)(N)C(O)C(C)O4)c4ccc(c(Cl)c4)Oc4cc3cc(c4OC3OC(CO)C(O)C(O)C3OC3CC(C)(NCc4cccc(Br)c4)C(O)C(C)O3)Oc3ccc(cc3Cl)C2O)CN1C (centres unmarked) [II6] | 2 | 0.25 | 
20 | CCN(CC)Cc1c(O)cc2c(c1O)-c1cc(ccc1O)C1NC(=O)C3NC(=O)C(CC(N)=O)NC(=O)C(N4CN(C)C(CC(C)C)C4=O)C(O)c4ccc(c(Cl)c4)Oc4cc3cc(c4OC3OC(CO)C(O)C(O)C3OC3CC(C)(NCc4ccc(Br)cc4)C(O)C(C)O3)Oc3ccc(cc3Cl)C(OC3CC(C)(N)C(O)C(C)O3)C(NC1=O)C(=O)NC2C(=O)O (centres unmarked) [II7] | 1 | 0.25 | 
21 | CCN(CC)Cc1c(O)cc2c(c1O)-c1cc(ccc1O)C1NC(=O)C3NC(=O)C(CC(N)=O)NC(=O)C(N4CN(C)C(CC(C)C)C4=O)C(O)c4ccc(c(Cl)c4)Oc4cc3cc(c4OC3OC(CO)C(O)C(O)C3OC3CC(C)(NCc4ccc(OC)cc4)C(O)C(C)O3)Oc3ccc(cc3Cl)C(OC3CC(C)(N)C(O)C(C)O3)C(NC1=O)C(=O)NC2C(=O)O (centres unmarked) [II8] | 1 | 0.25 | 
